“Also recorded” adds a separate entry of the source.

The target of test [1] is T1, CCR3/2 chimera (Homo sapiens, UniProt P51677).
T1 construct: The total length of the CCR3/2 chimeric molecule described herein is 356 amino acids; CCR2B cytoplasmic tail (fusion partner replacing the CCR3 C terminus); expressed in transfected cells
T1 sequence (P51677 with tags, fused parts or gaps): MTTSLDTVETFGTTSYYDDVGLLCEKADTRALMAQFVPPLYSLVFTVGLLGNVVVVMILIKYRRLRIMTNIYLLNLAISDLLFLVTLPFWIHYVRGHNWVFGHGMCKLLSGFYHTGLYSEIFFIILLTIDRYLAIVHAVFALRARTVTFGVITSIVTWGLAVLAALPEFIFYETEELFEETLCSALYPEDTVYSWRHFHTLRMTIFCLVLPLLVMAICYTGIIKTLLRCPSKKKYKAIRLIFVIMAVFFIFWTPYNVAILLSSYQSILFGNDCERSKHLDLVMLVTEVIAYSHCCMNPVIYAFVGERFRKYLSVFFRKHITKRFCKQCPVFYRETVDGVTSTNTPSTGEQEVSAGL
Briefly: 125I-eotaxin binding assay on CHO CCR3/2 clone 5.5 cells. The procedure:
(§1) In order to compare the ability of cells expressing chimeric human CCR3/2 molecules to that of cells expressing endogenous human CCR3 to bind eotaxin, a binding assay was performed. Depending upon the questions being asked, the cells in question were either human or mouse eosinophils, CHO-K1 cells expressing recombinant CCR3 or CCR3/2, parental CHO-K1 cells or other cell types. All assay steps were conducted at room temperature. Multiscreen assay plates (#MABVN1250, Millipore Inc., Marlborough, Mass.) were incubated with 100 μl/well of blocking solution (7.5 μg/ml protamine in PBS) to block non-specific binding. After 20 minutes, the blocking solution was removed and replaced with 100 μl of binding buffer, (RPMI 1640 (Life Technologies, Grand Island, N.Y.) containing 0.1% bovine serum albumin and 20 mM HEPES buffer) and incubated for at least an additional 10 minutes.
(§2) When ready to use plate(s), the following procedure was employed. Remove the binding buffer and add the following to the well types indicated:
(§3) to TOTAL binding wells add 50 μl of binding buffer;
(§4) to NON-SPECIFIC binding wells add 50 μl of unlabeled human eotaxin to 100 nM and 1000 nM final concentration (recombinant human eotaxin—#320-EO/CF, R&D Systems, Minneapolis, Minn.) in 50 μl binding buffer; […]
(§5) Binding data were analyzed using Microsoft EXCEL and then graphed using GRAPHPAD PRISMT™. […]

For test [2], the target named is T2, CCR3 (Homo sapiens, UniProt P51677).
T2 construct: cells expressing endogenous human CCR3; endogenous in cells; host or cells: native human eosinophils
T2 sequence (P51677 1-355): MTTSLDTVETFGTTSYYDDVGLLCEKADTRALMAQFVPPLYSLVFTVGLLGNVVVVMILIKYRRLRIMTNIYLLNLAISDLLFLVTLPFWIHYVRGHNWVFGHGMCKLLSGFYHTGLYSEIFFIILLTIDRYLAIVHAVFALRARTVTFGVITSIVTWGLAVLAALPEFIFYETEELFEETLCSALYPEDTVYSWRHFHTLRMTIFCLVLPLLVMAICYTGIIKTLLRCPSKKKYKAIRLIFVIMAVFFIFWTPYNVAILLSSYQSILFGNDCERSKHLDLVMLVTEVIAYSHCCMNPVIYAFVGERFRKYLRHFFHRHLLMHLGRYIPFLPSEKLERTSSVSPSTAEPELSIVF
In words: 125I-eotaxin binding assay on human eosinophils. The conditions noted are these: native human eosinophils; 0.15 nM 125I-labeled human eotaxin; room temperature. On the procedure:
as §1, §2, §3, §4, §5

Test [3] deals with T3, chimeric CCR3/2 receptor (Homo sapiens, UniProt P51677).
T3 construct: The total length of the CCR3/2 chimeric molecule described herein is 356 amino acids; CCR2B cytoplasmic tail (fusion partner replacing the CCR3 C terminus); expressed in transfected cells
T3 sequence (P51677 with tags, fused parts or gaps): T1 sequence (P51677 with tags, fused parts or gaps)
Briefly: phospho-ERK western blot after eotaxin stimulation of CHO CCR3/2 clone 5.5 cells. The test is classed as cell-based. The conditions noted are these: nanomolar eotaxin. From the text:
Part of the downstream signalling cascade involves the activity of kinases (proteins that add phosphate groups to specific residues in cellular proteins, thereby causing them to take on new activities and cellular roles). In the present Example, the phosphorylation of Erk (a member of a protein kinase signalling cascade) is considered to be an indication that binding of eotaxin at the cell surface is recognized by the cell signalling machinery that lies within the cytoplasm and nucleus.
Thus, the present invention further provides that a chimeric chemokine receptor (e.g., the chimeric CCR3/2 receptor) when expressed in cells is capable of downstream signalling when binding to its cognate ligand (e.g., eotaxin). Such downstream signalling involves the MAP kinase pathway, more specifically, the phosphorylation of Erk1 and Erk2 subsequent to binding of eotaxin by either CCR3 or CCR3/2.
Analysis of cell stimulation for phospho-ERK analysis by western blotting was done as previously described (Scherle et al., (1998) J. Immunol. 161(10):5681-86) with the exception that cells were specifically stimulated by exposure to eotaxin (nanomolar exposures to eotaxin listed on the bottoms of FIGS. 7A and 7B) instead of the more generic stimulant lipopolysaccharide as described in Sherle et al. (Scherle et al., (1998) J. Immunol. 161(10):5681-86).
A general note: A western blot detects proteins with antibodies after separation by electrophoresis.

`C[C@@H](NC(=O)Nc1cccc(-c2nnnn2C)c1)[C@@H](O)CN1CCC[C@@H](Cc2ccc(F)cc2)C1` [Compound 1, N-{(1R,2S)-3-[(3S)-3-(4-fluorobenzyl)-1-piperidinyl]-2-hydroxy-1-methylpropyl}-N′-[3-(1-methyl-1H-tetraazol-5-yl)phenyl]urea]: the “competition with labeled eotaxin for binding (drug inhibition curve)” value is on record as “comparable; also recorded: compete with eotaxin for binding” in test [1] (CHO CCR3/2 clone 5.5, 0.15 nM 125I-labeled human eotaxin, room temperature) and “comparable” in test [2].
Consider “eotaxin: recombinant human eotaxin, chemokine peptide ligand of CCR3 (R&D Systems #320-EO/CF; 125I-labeled form from Perkin Elmer)”, for which, in test [1] (CHO cells expressing human CCR3/2), the eotaxin binding result is “high levels of specific eotaxin binding; also recorded: high affinity”. The “Erk phosphorylation (downstream signalling) on exposure to eotaxin” value in test [3] is “able to transmit a signal”.

The values above are taken from patent US7259000B2, “Polynucleotides encoding chimeric chemokine receptors” (Bristol-Myers Squibb Company, priority 2003, dated 2007).
